For 19 compounds, Activity results are on record in ChEMBL document CHEMBL1151359, “Effects of Tetracyclic and Pentacyclic Triterpenoids on Growth of Phytophthora cactorum” (1981).

SMILES strings stand for the structures. Activity calls are given as the source filed them. The calls are words filed in the database; no cut-off is given here.

The test system of assay [1] is Phytophthora cactorum. Nature of the assay: Effect on Phytophthora cactorum growth assessed as colony diameter at 10 mg/L after 6 days in solid culture medium. Format: functional.
Assay [2] relates to Phytophthora cactorum. The experiment in a line: Antifungal activity against Phytophthora cactorum at 10 mg/L in liquid culture medium. Format: functional, organism-based.
Assay [3] has as its system Phytophthora cactorum. Nature of the assay: Growth promotion activity in Phytophthora cactorum at 10 mg/L in liquid culture medium. Format: functional, organism-based.
The test system of assay [4] is Phytophthora cactorum. Nature of the assay: Growth promotion activity of Phytophthora cactorum assessed as mycelial dry weight at 10 mg/L after 12 days in liquid culture medium. Format: functional.
The subject of assay [5] is Phytophthora cactorum. The experiment in a line: Growth promotion activity of Phytophthora cactorum assessed as mycelial dry weight at 10 mg/L after 18 days in liquid culture medium. Format: functional.

Take `C=C(C)[C@H]1CC[C@]2(C)[C@H]3CC[C@@H]4[C@@]5(C)CCCC(C)(C)[C@@H]5CC[C@@]4(C)[C@]3(C)CC[C@@H]12`: the Activity in the assay with Phytophthora cactorum [1] was 30 mm. The result in the assay on Phytophthora cactorum [2] was Active.

For the compound `C=C(C)[C@@H]1CC[C@]2(C)CC[C@]3(C)[C@H](CC[C@@H]4[C@@]5(C)CCC(=O)C(C)(C)[C@@H]5CC[C@]43C)[C@@H]12`, the result with Phytophthora cactorum [2] was Active.

With `CC(=O)OC(C)(C)/C=C/C(=O)[C@](C)(O)[C@H]1[C@H](O)C[C@@]2(C)[C@@H]3CC=C4[C@@H](C=C(O)C(=O)C4(C)C)[C@]3(C)C(=O)C[C@]12C`, the outcome in the assay with Phytophthora cactorum [2] was Active.

On to `CC(=O)OC(C)(C)/C=C/C(=O)[C@](C)(O)[C@H]1[C@H](O)C[C@@]2(C)[C@@H]3CC=C4[C@@H](C[C@H](O)C(=O)C4(C)C)[C@]3(CO)C(=O)C[C@]12C`, for which the outcome in the assay on Phytophthora cactorum [2] was Active.

On to `CC(=O)OC(C)(C)/C=C/C(=O)[C@](C)(O)[C@H]1[C@H](O)C[C@@]2(C)[C@@H]3CC=C4[C@H](C[C@H](O)C(=O)C4(C)C)[C@]3(C)C(=O)C[C@]12C`, for which the result with Phytophthora cactorum [2] was Active.

As for `CC(C)(O)/C=C/C(=O)[C@](C)(O)[C@H]1[C@H](O)C[C@@]2(C)[C@@H]3CC=C4[C@@H](C[C@H](O)C(=O)C4(C)C)[C@]3(C)C(=O)C[C@]12C`, the result in the assay with Phytophthora cactorum [2] was Active.

As for `CC(C)CCC[C@@H](C)[C@H]1CC[C@H]2[C@@H]3CC=C4C[C@@H](O)CC[C@]4(C)[C@H]3CC[C@]12C`, the result with Phytophthora cactorum [3] was Active.

Turning to `C[C@H]1C(=O)CC[C@@H]2[C@]1(C)CC[C@H]1[C@@]2(C)CC[C@@]2(C)[C@@H]3CC(C)(C)CC[C@]3(C)CC[C@]12C`, in the assay with Phytophthora cactorum [2], the outcome was Active.

`C[C@H]1[C@H](C)CC[C@]2(C)CC[C@]3(C)C(=CC[C@@H]4[C@@]5(C)CC[C@H](O)C(C)(C)[C@@H]5CC[C@]43C)[C@H]12`: the result with Phytophthora cactorum [3] was Active.

For `CC[C@H](CC[C@@H](C)[C@H]1CC[C@H]2[C@@H]3CC=C4C[C@@H](O)CC[C@]4(C)[C@H]3CC[C@]12C)C(C)C` [BETA-SITOSTEROL], the values for the Activity with Phytophthora cactorum [4], in the assay on Phytophthora cactorum [1] and with Phytophthora cactorum [5] were 125 mg, 35 mm and 200 mg, respectively.

As for `C=C(C)[C@@H]1CC[C@]2(CO)CC[C@]3(C)[C@H](CC[C@@H]4[C@@]5(C)CC[C@H](O)C(C)(C)[C@@H]5CC[C@]43C)[C@@H]12` [BETULIN], the Activity in the assay on Phytophthora cactorum [1] came to 30.5 mm.

On to `CC(C)[C@H](C)CC[C@@H](C)[C@H]1CC[C@H]2[C@@H]3CC=C4C[C@@H](O)CC[C@]4(C)[C@H]3CC[C@]12C` [CAMPESTEROL], for which the Activity in the assay on Phytophthora cactorum [4] worked out at 125 mg; in the assay on Phytophthora cactorum [5], 200 mg.

For `CC(=O)OC(C)(C)/C=C/C(=O)[C@](C)(O)[C@H]1[C@H](O)C[C@@]2(C)[C@@H]3CC=C4[C@@H](CC[C@@H](O)C4(C)C)[C@]3(CO)C(=O)C[C@]12C` [CUCURBITACIN C], in the assay with Phytophthora cactorum [1], the Activity was found to be 28 mm. In addition, in the assay with Phytophthora cactorum [2], the result was Active.

`CC(C)=CCC[C@@H](C)[C@H]1CC[C@@]2(C)[C@@H]3CC[C@H]4C(C)(C)[C@@H](O)CC[C@@]45C[C@@]35CC[C@]12C` [CYCLOARTENOL]: the Activity in the assay with Phytophthora cactorum [1] is 31 mm.

For the compound `CC(C)=CCC[C@@H](C)[C@H]1CC[C@@]2(C)C3=C(CC[C@]12C)[C@@]1(C)CC[C@H](O)C(C)(C)[C@@H]1CC3` [LANOSTEROL], the Activity in the assay on Phytophthora cactorum [1] was found to be 30.5 mm.

Consider `C=C(C)[C@@H]1CC[C@]2(C)CC[C@]3(C)[C@H](CC[C@@H]4[C@@]5(C)CC[C@H](O)C(C)(C)[C@@H]5CC[C@]43C)[C@@H]12` [LUPEOL], for which, in the assay on Phytophthora cactorum [1], the Activity stood at 29.5 mm.

Regarding `CC1(C)CC[C@]2(C(=O)O)CC[C@]3(C)C(=CC[C@@H]4[C@@]5(C)CC[C@H](O)C(C)(C)[C@@H]5CC[C@]43C)[C@@H]2C1` [OLEANOLIC_ACID], the Activity in the assay with Phytophthora cactorum [1] was 29 mm.

Take `CC1(C)CCC[C@]2(C)[C@H]3CC[C@@H]4[C@@]5(C)CC[C@H](O)C(C)(C)[C@@H]5CC[C@@]4(C)[C@]3(C)CC[C@@H]12` [TETRAHYMANOL]: in the assay with Phytophthora cactorum [3], the result was Active. Moreover, the Activity in the assay with Phytophthora cactorum [5] is on record as 135 mg.

On to `CC1(C)CC[C@]2(C)CC[C@]3(C)C(=CC[C@@H]4[C@@]5(C)CC[C@H](O)C(C)(C)[C@@H]5CC[C@]43C)[C@@H]2C1` [beta-AMYRIN], for which the outcome in the assay with Phytophthora cactorum [3] was Active. Besides, the Activity came to 35 mm in the assay with Phytophthora cactorum [1] and 135 mg in the assay on Phytophthora cactorum [5].
